# Assays:
# [1] = tested on: monoamine oxidase-dependent tetracaine metabolism; assay: In vitro metabolism of tetracaine (methods of the propranolol studies)
# [2] = tested on: propranolol metabolism in human keratinocytes; settings: tritiated propranolol 1.5×10^-7 M, several days, metabolites by TLC, vs control incubation without tranylcypromine
# Protocol: At the end of several days, the metabolites resulting from propranolol ,metabolism were identified and quantitated by thin layer chromatography.
# Human keratinocytes were incubated in tritiated propranolol (12.5 Ci/mmole, final concentration 1.5×10^-7 M) and a range of concentration of each phenyl alcohol. Quadruplicates were used at each concentration. At six days, the metabolites resulting from propranolol deamination were extracted (ether, pH of 3) and the radioactivity of the extract was measured by scintillation counting. The concentration of each phenyl alcohol studied, which inhibits 50 percent of propranolol metabolism (MI50) was estimated by means of the Litchfield and Wilcoxon method.
# [3] = Patch test (elicitation) in a human subject sensitized to propranolol
# Protocol: A human subject suspected of being sensitized to propranolol was patch tested for 16 hours with 0.5% propranolol in a 2% hydroxyethyl cellulose (HEC) gel buffered to a pH of 8.5 with 0.05M TrisHC1.
# The same subject was patch tested several days later with the following compositions in 2% HEC gel buffered to a pH of 8.5 with 0.05M TrisHC1: 0.5% propranolol; 0.5% tranylcypromine; 10% 2-phenyl-1-ethanol; 0.5% propranolol with 0.5% tranylcypromine; and 0.5% propranolol with 10% 2-phenyl-1-ethanol. Each composition was placed simultaneously at different sites on the subject's volar forearm.
# [4] = Induction of contact sensitization by patches in groups of 100 human subjects; assay type: in vivo; settings: tetracaine/2-phenyl-1-ethanol patches vs tetracaine-only patches, 100 subjects each
# Protocol: The components were blended in an internal mixing bowl at 100° C. and after approximately one hour, the mixture was extruded between two release substrates. One substrate was peeled away and a backing member was applied in its place.
# Similar patches were manufactured without the presence of 2-phenyl-1-ethanol.
# Two groups of 100 human subjects each were then tested. They were each tested by application of a system, for a three hour duration, once every 8 weeks.
# 100 subjects were given the patches containing only tetracaine. […] The other 100 subjects were given the patches containing both tetracaine and 2-phenyl-1-ethanol.
# [5] = Patch test (elicitation) in human subjects sensitized to tetracaine, erythema by Minolta Chromameter; assay type: in vivo; settings: 21 hours after removal
# Protocol: Testing occurred over a period of several weeks where a positive control composition was placed on the skin along with one of the tetracaine/phenyl alcohol compositions and the intensity of the skin reaction obtained, was observed. This was repeated on different areas of the arm until all of the compositions were tested. Each formulation remained on the skin for a period of three hours and the reactions were observed during the 16-24 hour period after removal of the formulation. Erythema or redness of the reaction site was quantitated with a Minolta Chromameter. In all instances, the intensity of the reaction caused by the tetracaine/phenyl alcohol composition, was less than that caused by tetracaine alone (positive control). Thus it was established that the presence of phenyl alcohols reduced the elicitation reaction as compared to the 2% tetracaine gel.
# The best results were obtained using 2-phenyl-1-ethanol and 3-phenyl-1-propanol. On a scale of 0-100, with 0 being 0% inhibition (2% tetracaine gel/positive control) and 100 being 100% inhibition (placebo gel/negative control), the following data was obtained 21 hours after removal of the formulations: […]
# [6] = tested on: monoamine oxidase activity; assay type: cell-based
# Source text: Therefore, the metabolism of chlorpheniramine can also be inhibited in the skin or mucosa, by the addition of metabolic modulators such as the phenyl alcohols disclosed with reference to propranolol.
# [7] = 0.5% alone in 2% HEC gel pH 8.5, volar forearm, one day later, propranolol-sensitized subject
# [8] = 2.5 weight % inhibitor with 2% tetracaine gel
# [9] = 5 weight % inhibitor with 2% tetracaine gel
# [10] = 10 weight % inhibitor with 2% tetracaine gel
Structure (SMILES),inhibition of monoamine oxidase-dependent tetracaine metabolism [1],"skin reaction at patch site [3, 7]","Percent Inhibition of Reaction [5, 8]","Percent Inhibition of Reaction [5, 9]","Percent Inhibition of Reaction [5, 10]",other results
N[C@@H]1C[C@H]1c1ccccc1 (relative stereo) [tranylcypromine],could be inhibited,No reaction,–,–,–,inhibition of propranolol metabolism [2]: inhibited
OCCc1ccccc1 [2-phenyl-1-ethanol],could be inhibited,–,52%,52%,77%,"skin reaction at patch site ([3]; human, in vivo, pH 8.5): No reaction; reduction of the incidence of sensitization [4]: about 70%"
"OCCCc1ccccc1 [3-Phenyl-1-propanol, 3-phenyl-1-propanol]",–,–,37%,100%,100%,–
CN(C)CCC(c1ccc(Cl)cc1)c1ccccn1 (stereo not shown) [chlorpheniramine],–,–,–,–,–,dependence of in vitro skin metabolism on monoamine oxidase activity [6]: largely dependent upon monoamine oxidase activity
CC(C)NCC(O)COc1cccc2ccccc12 (stereo not shown) [propranolol],–,strong reaction,–,–,–,"skin reaction after patch test ([3]; 0.5% in 2% HEC gel pH 8.5, 16 hours patch, one to two days later): a reaction which was characteristic of a contact sensitization reaction"
CCCCNc1ccc(C(=O)OCCN(C)C)cc1 [tetracaine],–,–,–,–,–,portion of metabolism that is monoamine oxidase-dependent [1]: 25%

# Reference: US5304379A, “Method for reducing sensitization or irritation in transdermal drug delivery and means therefor” (priority 1992, dated 1994)
